Reference: PubChem BioAssay (NCI)
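1) Cells in 96-well plates. 2) Compound, 48 h, 5 concentrations. 3) Linear interpolation between surrounding doses. 4) Unreached endpoint = highest concentration. TGI: total growth inhibition.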

Assays:
Experiment in all cases: NCI tumour cell line growth inhibition, 48 h
[1] = test system: DMS 273 small cell lung
[2] = test system: M19-MEL melanoma
[3] = test system: HOP-18 NSCLC
[4] = test system: RXF-631 renal
[5] = test system: DMS 114 small cell lung
[6] = test system: KM20L2 colon
[7] = test system: XF 498 CNS

SMILES | TGI [1] [µM] | TGI [2] [µM] | TGI [3] [µM] | TGI [4] [µM] | TGI [5] [µM] | TGI [6] [µM] | TGI [7] [µM]
O=[As](O)(O)c1cc(N=Nc2ccc(-c3ccc(N=Nc4cc([As](=O)(O)O)c(O)cc4O)cc3)cc2)c(O)cc1O | > 100 | > 100 | > 100 | > 100 | > 100 | > 100 | –
CCN(CC)CCCNc1ccc2nnn3c4ccc(O)cc4c(=O)c1c23 | 17.9 | 26.8 | 29.8 | 17.4 | 25.1 | 18.7 | 28.9
C=C1C[C@]23C[C@@]1(O)CC[C@H]2[C@@]12C=C[C@H](O)[C@@](C)(C(=O)O1)[C@H]2[C@@H]3C(=O)O | > 100 | > 100 | – | – | > 100 | > 100 | > 100
CCOC(=O)C(C(=O)Cc1ccccc1)c1ccccc1 (stereo unspecified) | – | > 100 | – | – | – | > 100 | > 100
